pIC50: −log10 of the molar value. Counter-ions that a name gives are not always drawn. Like-named read-outs stand apart in the source and are kept apart here.
Target: MLK3 (Homo sapiens (Human), UniProt Q16584)
Assay: Radiometric Filter Plate MLK3 Assay
Format: biochemical
Conditions: read-out: MK3 IC50
Procedure: Radiometric Filter Plate MLK3 Assay
After a twenty minute incubation, the reactions were washed through filter plates and read on a scintillation counter. Results are shown in Table 4 below, in which +++ indicates ≦0.1 μM, ++ indicates >0.1 μM and ≦1 μM, and + indicates >1 μM.

[1] = 200 ng (130 nM) MLK3, 1 μM inactive MKK7b, 2 μM cold ATP (Km), 33P ATP, twenty minute incubation

Sequence of MLK3 (Q16584 whole entry): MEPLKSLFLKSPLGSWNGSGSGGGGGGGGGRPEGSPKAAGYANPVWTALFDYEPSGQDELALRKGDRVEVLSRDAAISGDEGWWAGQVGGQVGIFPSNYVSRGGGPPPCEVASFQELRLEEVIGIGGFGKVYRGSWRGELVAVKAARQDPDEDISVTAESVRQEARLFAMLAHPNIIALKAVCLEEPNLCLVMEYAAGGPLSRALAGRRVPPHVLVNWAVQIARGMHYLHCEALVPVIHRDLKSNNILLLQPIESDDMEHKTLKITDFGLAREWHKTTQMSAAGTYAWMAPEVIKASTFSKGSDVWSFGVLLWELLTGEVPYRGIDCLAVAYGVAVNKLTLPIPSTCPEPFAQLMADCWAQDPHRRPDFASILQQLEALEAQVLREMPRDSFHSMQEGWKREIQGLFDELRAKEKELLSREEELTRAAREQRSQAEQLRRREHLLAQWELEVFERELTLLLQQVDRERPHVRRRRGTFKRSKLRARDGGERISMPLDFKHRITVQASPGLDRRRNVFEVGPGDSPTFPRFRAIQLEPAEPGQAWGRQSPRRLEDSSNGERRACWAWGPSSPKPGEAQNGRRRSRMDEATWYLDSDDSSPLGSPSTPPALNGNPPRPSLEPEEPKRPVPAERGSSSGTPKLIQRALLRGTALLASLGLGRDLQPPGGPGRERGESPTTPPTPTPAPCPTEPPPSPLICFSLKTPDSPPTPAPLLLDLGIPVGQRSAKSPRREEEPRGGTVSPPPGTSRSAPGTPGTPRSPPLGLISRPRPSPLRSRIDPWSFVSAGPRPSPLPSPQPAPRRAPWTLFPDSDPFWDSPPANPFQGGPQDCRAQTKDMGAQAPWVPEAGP

Structure (SMILES)	pIC50 [1]	pIC50
COc1cc(-c2cnc3[nH]c(=O)n(-c4ccc(N5CCOCC5)nc4)c3n2)cc(OC)c1OC [Example 109, 1-(6-morpholinopyridin-3-yl)-6-(3,4,5-trimethoxyphenyl)-1H-imidazo[4,5-b]pyrazin-2(3H)-one]	< 6.00	–
COc1cc(-c2cnc3[nH]c(=O)n(C4Cc5ccccc5C4)c3n2)cc(OC)c1OC [Example 110, 1-(2,3-dihydro-1H-inden-2-yl)-6-(3,4,5-trimethoxyphenyl)-1H-imidazo[4,5-b]pyrazin-2(3H)-one]	> 7.00	–
COc1ccc(-c2cnc3[nH]c(=O)n(-c4cnc5[nH]ccc5c4)c3n2)cc1OC [Example 111, 6-(3,4-dimethoxyphenyl)-1-(1H-pyrrolo[2,3-b]pyridin-5-yl)-1H-imidazo[4,5-b]pyrazin-2(3H)-one]	–	6.00 to 7.00
COc1cc(-c2cnc3[nH]c(=O)n(-c4cnc5[nH]ccc5c4)c3n2)cc(OC)c1OC [Example 112, 1-(1H-pyrrolo[2,3-b]pyridin-5-yl)-6-(3,4,5-trimethoxyphenyl)-1H-imidazo[4,5-b]pyrazin-2(3H)-one]	> 7.00	–
COc1cc(-c2cnc3[nH]c(=O)n(-c4ccc5cc[nH]c5c4)c3n2)cc(OC)c1OC [Example 113, 1-(1H-indol-6-yl)-6-(3,4,5-trimethoxyphenyl)-1H-imidazo[4,5-b]pyrazin-2(3H)-one]	> 7.00	–
COc1cc(-c2cnc3[nH]c(=O)n(-c4ccc(O)cc4)c3n2)cc(OC)c1OC [Example 114, 1-(4-hydroxyphenyl)-6-(3,4,5-trimethoxyphenyl)-1H-imidazo[4,5-b]pyrazin-2(3H)-one]	–	6.00 to 7.00
COc1ccc(-c2cnc3[nH]c(=O)n(-c4ccc(O)cc4)c3n2)cc1OC [Example 115, 6-(3,4-dimethoxyphenyl)-1-(4-hydroxyphenyl)-1H-imidazo[4,5-b]pyrazin-2(3H)-one]	–	6.00 to 7.00
O=c1[nH]c2ncc(-c3ccc(N4CCOCC4)cc3)nc2n1-c1ccc(O)cc1 [Example 116, 1-(4-hydroxyphenyl)-6-(4-morpholinophenyl)-1H-imidazo[4,5-b]pyrazin-2(3H)-one]	–	6.00 to 7.00
Nc1ccc(-c2cnc3[nH]c(=O)n(C4CCCC4)c3n2)cn1 [Example 117, 6-(6-aminopyridin-3-yl)-1-cyclopentyl-1H-imidazo[4,5-b]pyrazin-2(3H)-one]	< 6.00	–
COc1cc(-c2nc3c(nc2Cl)[nH]c(=O)n3CC2CC2)cc(OC)c1OC [Example 119, 5-chloro-1-(cyclopropylmethyl)-6-(3,4,5-trimethoxyphenyl)-1H-imidazo[4,5-b]pyrazin-2(3H)-one]	< 6.00	–
COc1cc(-c2cnc3c(c2)C(C)(C)C(=O)N3)cc(OC)c1OC [Example 120, 3,3-dimethyl-5-(3,4,5-trimethoxyphenyl)-1H-pyrrolo[2,3-b]pyridin-2(3H)-one]	–	6.00 to 7.00
COc1cc(-c2cnc3c(c2)C2(CCCC2)C(=O)N3)cc(OC)c1OC [Example 121, 5′-(3,4,5-trimethoxyphenyl)spiro[cyclopentane-1,3′-pyrrolo[2,3-b]pyridin]-2′(1′H)-one]	–	6.00 to 7.00
COc1cc(-c2cnc3c(c2)C(CC2CC2)C(=O)N3)cc(OC)c1OC (stereo not shown) [Example 123, 3-(cyclopropylmethyl)-5-(3,4,5-trimethoxyphenyl)-1H-pyrrolo[2,3-b]pyridin-2(3H)-one]	6.00 to 7.00	–
COc1cc(-c2cnc3[nH]c(=O)n(CC4CC4)c3c2)cc(OC)c1OC [Example 125, 1-(cyclopropylmethyl)-6-(3,4,5-trimethoxyphenyl)-1H-imidazo[4,5-b]pyridin-2(3H)-one]	< 6.00	–
COc1cc(-c2cnc3ncn(-c4ccc5[nH]ccc5c4)c3n2)cc(OC)c1OC [Example 126, 1-(1H-indol-5-yl)-6-(3,4,5-trimethoxyphenyl)-1H-imidazo[4,5-b]pyrazine]	< 6.00	–
COc1cc(-c2cnc3[nH]c(=S)n(CC4CC4)c3n2)cc(OC)c1OC [Example 127, 1-(cyclopropylmethyl)-6-(3,4,5-trimethoxyphenyl)-1H-imidazo[4,5-b]pyrazine-2(3H)-thione]	< 6.00	–
COc1cc(-c2cnc3c(c2)/C(=C\c2ccncc2)C(=O)N3)cc(OC)c1OC [Example 129, (E)- and (Z)-3-pyridin-4-ylmethylene-5-(3,4,5-trimethoxy-phenyl)-1,3-dihydro-pyrrolo[2,3-b]pyridin-2-one]	< 6.00	–
COc1cc(-c2cnc3c(c2)C(=Cc2ccccc2)C(=O)N3)cc(OC)c1OC [Example 130, 3-benzylidene-5-(3,4,5-trimethoxy-phenyl)-1,3-dihydro-pyrrolo[2,3-b]pyridin-2-one]	< 6.00	–
NC(=O)c1ccc(-c2c[nH]c3ncc(-c4ccc(C(=O)N5CCNCC5)cc4)cc23)cc1 [Example 149, 4-{5-[4-(piperazine-1-carbonyl)-phenyl]-1H-pyrrolo[2,3-b]pyridin-3-yl}-benzamide, hydrochloride salt]	> 7.00	–
CC(=O)N1CCN(C(=O)c2ccc(-c3cnc4[nH]cc(-c5ccc(C(N)=O)cc5)c4c3)cc2)CC1 [Example 150, 4-{5-[4-(4-acetyl-piperazine-1-carbonyl)-phenyl]-1H-pyrrolo[2,3-b]pyridin-3-yl}-benzamide]	–	6.00 to 7.00

Other lines, results leading:

pIC50 [1]	pIC50	Structure (SMILES)
< 6.00	–	COc1cc(-c2cnc3c(c2)C(=Cc2cccc(C(N)=O)c2)C(=O)N3)cc(OC)c1OC [Example 132, 3-[2-oxo-5-(3,4,5-trimethoxy-phenyl)-1,2-dihydro-pyrrolo[2,3-b]pyridin-3-ylidenemethyl]-benzamide]
< 6.00	–	COc1cc(-c2cnc3c(c2)C(=Cc2ccc(C#N)cc2)C(=O)N3)cc(OC)c1OC [Example 133, 4-[2-oxo-5-(3,4,5-trimethoxy-phenyl)-1,2-dihydro-pyrrolo[2,3-b]pyridin-3-ylidenemethyl]-benzonitrile]
< 6.00	–	COc1cc(-c2cnc3c(c2)C(=Cc2cccc(C#N)c2)C(=O)N3)cc(OC)c1OC [Example 134, 3-[2-oxo-5-(3,4,5-trimethoxy-phenyl)-1,2-dihydro-pyrrolo[2,3-b]pyridin-3-ylidenemethyl]-benzonitrile]
< 6.00	–	COc1cc(-c2cnc3c(c2)C(Cc2cccnc2)C(=O)N3)cc(OC)c1OC (stereo not shown) [Example 135, 3-pyridin-3-ylmethyl-5-(3,4,5-trimethoxy-phenyl)-1,3-dihydro-pyrrolo[2,3-b]pyridin-2-one]
< 6.00	–	COc1cc(-c2cnc3c(c2)C(Cc2ccccc2)C(=O)N3)cc(OC)c1OC (stereo not shown) [Example 137, 3-benzyl-5-(3,4,5-trimethoxy-phenyl)-1,3-dihydro-pyrrolo[2,3-b]pyridin-2-one]
< 6.00	–	COc1cc(-c2cnc3c(c2)C(Cc2ccc(C(N)=O)cc2)C(=O)N3)cc(OC)c1OC (stereo not shown) [Example 138, 4-[2-oxo-5-(3,4,5-trimethoxy-phenyl)-2,3-dihydro-1H-pyrrolo[2,3-b]pyridin-3-ylmethyl]-benzamide]
–	6.00 to 7.00	COc1cc(-c2cnc3c(c2)C(Cc2ccccc2)(Cc2ccccc2)C(=O)N3)cc(OC)c1OC [Example 139, 3,3-dibenzyl-5-(3,4,5-trimethoxy-phenyl)-1,3-dihydro-pyrrolo[2,3-b]pyridin-2-one]
–	< 6.00	CC(=O)N1CCN(Cc2ccc(-c3cnc4[nH]cc(-c5ccc6[nH]ccc6c5)c4c3)cc2)CC1 [Example 140, 1-(4-{4-[3-(1H-indol-5-yl)-1H-pyrrolo[2,3-b]pyridin-5-yl]-benzyl}-piperazin-1-yl)-ethanone]
> 7.00	–	CN1CCN(Cc2ccc(-c3cnc4[nH]cc(-c5ccc6[nH]ccc6c5)c4c3)cc2)CC1=O [Example 141, 4-{4-[3-(1H-indol-5-yl)-1H-pyrrolo[2,3-b]pyridin-5-yl]-benzyl}-1-methyl-piperazin-2-one]
> 7.00	–	O=C1CN(Cc2ccc(-c3cnc4[nH]cc(-c5ccc6[nH]ccc6c5)c4c3)cc2)CCN1 [Example 142, 4-{4-[3-(1H-indol-5-yl)-1H-pyrrolo[2,3-b]pyridin-5-yl]-benzyl}-piperazin-2-one]
> 7.00	–	CN1CCN(Cc2cccc(-c3cnc4[nH]cc(-c5ccc6[nH]ccc6c5)c4c3)c2)CC1=O [Example 143, 4-{3-[3-(1H-indol-5-yl)-1H-pyrrolo[2,3-b]pyridin-5-yl]-benzyl}-1-methyl-piperazin-2-one]
> 7.00	–	CC(C)(C)OC(=O)N1CCN(Cc2ccc(-c3cnc4[nH]cc(-c5ccc6[nH]ccc6c5)c4c3)cc2)CC1 [Example 144, 4-{4-[3-(1H-indol-5-yl)-1H-pyrrolo[2,3-b]pyridin-5-yl]-benzyl}-piperazine-1-carboxylic acid tert-butyl ester]
> 7.00	–	CC(=O)N1CCN(C(=O)c2ccc(-c3cnc4[nH]cc(-c5ccc6[nH]ccc6c5)c4c3)cc2)CC1 [Example 146, 1-(4-{4-[3-(1H-indol-5-yl)-1H-pyrrolo[2,3-b]pyridin-5-yl]-benzoyl}-piperazin-1-yl)-ethanone]
> 7.00	–	CN1CCN(C(=O)c2cccc(-c3cnc4[nH]cc(-c5ccc6[nH]ccc6c5)c4c3)c2)CC1 [Example 147, {3-[3-(1H-indol-5-yl)-1H-pyrrolo[2,3-b]pyridin-5-yl]-phenyl}-(4-methyl-piperazin-1-yl)-methanone]
> 7.00	–	CC(C)(C)OC(=O)N1CCN(C(=O)c2ccc(-c3cnc4[nH]cc(-c5ccc(C(N)=O)cc5)c4c3)cc2)CC1 [Example 148, 4-{4-[3-(4-carbamoyl-phenyl)-1H-pyrrolo[2,3-b]pyridin-5-yl]-benzoyl}-piperazine-1-carboxylic acid tert-butyl ester]
> 7.00	–	CC(C)(C)OC(=O)N1CCN(C(=O)c2cccc(-c3cnc4[nH]cc(-c5ccc(C(N)=O)cc5)c4c3)c2)CC1 [Example 151, 4-{3-[3-(4-carbamoyl-phenyl)-1H-pyrrolo[2,3-b]pyridin-5-yl]-benzoyl}-piperazine-1-carboxylic acid tert-butyl ester]
–	6.00 to 7.00	NC(=O)c1ccc(-c2c[nH]c3ncc(-c4cccc(C(=O)N5CCNCC5)c4)cc23)cc1 [Example 152, 4-{5-[3-(piperazine-1-carbonyl)-phenyl]-1H-pyrrolo[2,3-b]pyridin-3-yl}-benzamide, hydrochloride salt]
